SMILES strings stand for the structures. pIC50: −log10 of the molar value.

This experiment concerns the target T1, Renin (Homo sapiens, UniProt P00797).
T1 sequence (P00797 whole entry): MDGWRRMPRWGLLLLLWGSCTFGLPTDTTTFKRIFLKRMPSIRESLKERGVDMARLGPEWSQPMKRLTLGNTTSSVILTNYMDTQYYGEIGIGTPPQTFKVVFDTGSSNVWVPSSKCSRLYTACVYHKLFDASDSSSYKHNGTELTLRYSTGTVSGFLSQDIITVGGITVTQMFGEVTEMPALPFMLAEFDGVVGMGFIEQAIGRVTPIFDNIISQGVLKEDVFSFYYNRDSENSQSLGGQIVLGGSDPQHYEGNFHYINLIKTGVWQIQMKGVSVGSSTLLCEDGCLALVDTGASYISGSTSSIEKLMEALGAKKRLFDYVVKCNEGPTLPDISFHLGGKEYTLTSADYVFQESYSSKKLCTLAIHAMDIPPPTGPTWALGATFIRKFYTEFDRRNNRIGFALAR
In words: Inhibitory Effects on Human Renin Activity Assay. The protocol: Briefly, human recombinant renin (from the kit) was incubated with the compound of the disclosure or buffer for 30 min at 37° C. before substrate addition. Fluorescence intensity was measured at 530 nm after an incubation of 15 min at 37° C. Data was analyzed by Prism and fitted into a sigmodal curve for IC50 calculation.

Usually pIC50 stands for −log10 of the IC50, conventionally taken in molar units. High values mean a low IC50, low ones a high IC50. For the compound `CO[C@H]1C[C@H](Nc2cc(C3CC3)cnc2C(=O)N(CC(C)C)C2CNCC(C(=O)N3CCOC(C)(C)C3)C2)C1` (stereo partly specified) [US20240327385, Example 8], the pIC50 was 8.80.
